From patent US9073895B2 (Boehringer Ingelheim International GmbH, priority 2010, dated 2015)

How the values were obtained:
[1] = molecular target: T1, recombinant human FLAP protein (Homo sapiens, UniProt P20292); assay: FLAP binding assay (SPA, displacement of [125I]L-691,831); conditions: membranes of sf9 cells expressing human FLAP, [125I]L-691,831 probe; read-out: hFLAP binding IC50
T1 construct: made in house; host or cells: Sf9 insect cells (membrane fraction, 100,000 x g pellet)
T1 sequence (P20292 1-161): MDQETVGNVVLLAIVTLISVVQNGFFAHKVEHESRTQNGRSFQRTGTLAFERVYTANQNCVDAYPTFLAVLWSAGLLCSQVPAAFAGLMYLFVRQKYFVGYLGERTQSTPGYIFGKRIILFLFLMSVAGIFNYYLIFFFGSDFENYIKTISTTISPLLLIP
Outline: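 Membranes from sf9 cells expressing human FLAP (5 μg/well) were bound to WGA SPA beads (200 μg/well). Nonspecific binding was defined with 10 μM unlabelled L-691,831.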

[2] = tested on: synthesis of LTB4 in human whole blood; assay: Human whole blood LTB4 production inhibition assay; assay type: cell-based; conditions: heparinized human whole blood, calcimycin 20 μM, plasma LTB4; read-out: HuWB IC50
Outline: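 Readout: plasma LTB4 by antibody-based HTRF. Compound added to heparinized human whole blood, 15 min 37° C; calcimycin 20 μM final (PBS pH 7.4), 30 min 37° C; spun 1500×g 5 min, plasma taken.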

IC50 [1] [nM] | IC50 [2] [nM] | SMILES
220 | 1510 | COc1cncc(-c2ccc(NC(=O)C3(c4ccc(-c5cnc(N)nc5)nc4)CCOCC3)nc2)c1 [Example 132, 4-[6-(2-aminopyrimidin-5-yl)pyridin-3-yl]-N-(5′-methoxy-3,3′-bipyridin-6-yl)tetrahydro-2H-pyran-4-carboxamide]
9.4 | 4400 | Cc1nc(-c2ccc(NC(=O)C(c3ccc(-c4cnc(N)nc4)cc3)C(C)C)nc2)cs1 (stereo not drawn) [Example 133, 2-[4-(2-aminopyrimidin-5-yl)phenyl]-3-methyl-N-[5-(2-methyl-1,3-thiazol-4-yl)pyridin-2-yl]butanamide]
17.5 | 651 | COc1ccc(-c2ccc(NC(=O)C3(c4ccc(-c5cnc(N)nc5)cc4)CCOCC3)nc2)cn1 [Example 134, 4-[4-(2-aminopyrimidin-5-yl)phenyl]-N-(6'-methoxy-3,3'-bipyridin-6-yl)tetrahydro-2H-pyran-4-carboxamide]
66 | 1590 | Cn1cnc(-c2ccc(NC(=O)C3(c4ccc(-c5cnc(N)nc5)cc4)CCOCC3)nc2)c1 [Example 144, 4-[4-(2-aminopyrimidin-5-yl)phenyl]-N-[5-(1-methyl-1H-imidazol-4-yl)pyridin-2-yl]tetrahydro-2H-pyran-4-carboxamide]
11.1 | 752 | COC(=O)c1ccc(NC(=O)C2(c3ccc(-c4cnc(N)nc4)cc3)CCOCC2)nc1 [Example 146, methyl 6-[({4-[4-(2-aminopyrimidin-5-yl)phenyl]tetrahydro-2H-pyran-4-yl}carbonyl)amino]pyridine-3-carboxylate]
48 | 3590 | CC(C)(C)OC(=O)N1CCc2cc(NC(=O)C3(c4ccc(-c5cnc(N)nc5)cc4)CCOCC3)ccc2C1 [Example 150, tert-butyl 6-[({4-[4-(2-aminopyrimidin-5-yl)phenyl]tetrahydro-2H-pyran-4-yl}carbonyl)amino]-3,4-dihydroisoquinolin-2(1H)-carboxylate]
7.8 | 509 | Cc1nc(-c2ccc(NC(=O)C3(c4ccc(-c5cnc6c(c5)CCN6)cc4)CCOCC3)nc2)cs1 [Example 153, 4-[4-(2,3-dihydro-1H-pyrrolo[2,3-b]pyridin-5-yl)phenyl]-N-[5-(2-methyl-1,3-thiazol-4-yl)pyridin-2-yl]tetrahydro-2H-pyran-4-carboxamide]
1.4 | 354 | COc1cncc(-c2ccc(NC(=O)C(C)(c3ccc(-c4cnc5c(c4)CCN5)cc3)C(C)C)nc2)c1 (stereo not drawn) [Example 165, 2-[4-(2,3-dihydro-1H-pyrolo[2,3-b]pyridin-5-yl)phenyl]-N-(5'-methoxy-3,3'-bipyridin-6-yl)-2,3-dimethylbutanamide]
3 | 332 | COc1ccc(-c2ccc(NC(=O)C(C)(c3ccc(-c4cnc5[nH]ccc5c4)cc3)C(C)C)nc2)cn1 (stereo not drawn) [Example 166, N-(6'-methoxy-3,3'-bipyridin-6-yl)-2,3-dimethyl-2-[4-(1H-pyrolo[2,3-b]pyridin-5-yl)phenyl]butanamide]
7.95 | 616 | COc1ccc(-c2ccc(NC(=O)C3(c4ccc(-c5cnc6[nH]ccc6c5)cc4)CCOCC3)nc2)cn1 [Example 168, N-(6'-methoxy-3,3'-bipyridin-6-yl)-4-[4-(1H-pyrrolo[2,3-b]pyridin-5-yl)phenyl]tetrahydro-2H-pyran-4-carboxamide]

The next lines start with the molecule.

SMILES | IC50 [1] [nM] | IC50 [2] [nM]
COc1cncc(-c2ccc(NC(=O)C3(c4ccc(-c5cnc(N)nc5)cc4)CCOCC3)nc2)c1 [Example 135, 4-[4-(2-aminopyrimidin-5-yl)phenyl]-N-(5'-methoxy-3,3'-bipyridin-6-yl)tetrahydro-2H-pyran-4-carboxamide] | 11.1 | 738
CC(C)C(C)(C(=O)Nc1ccc(Cl)cn1)c1ccc(-c2cnc(N)nc2)cc1 (stereo not drawn) [Example 136, 2-[4-(2-aminopyrimidin-5-yl)phenyl]-N-(5-chloropyridin-2-yl)-2,3-dimethylbutanamide] | 10.3 | 4690
Nc1ncc(-c2ccc(C3(C(=O)Nc4ccccn4)CCOCC3)cc2)cn1 [Example 138, 4-[4-(2-aminopyrimidin-5-yl)phenyl]-N-(pyridin-2-yl)tetrahydro-2H-pyran-4-carboxamide] | 300 | 11800
Nc1ncc(-c2ccc(C3(C(=O)Nc4ccc5ccccc5n4)CCOCC3)cc2)cn1 [Example 142, 4-[4-(2-aminopyrimidin-5-yl)phenyl]-N-(quinolin-2-yl)tetrahydro-2H-pyran-4-carboxamide] | 39 | 11300
Nc1ncc(-c2ccc(C3(C(=O)Nc4ccc(-c5cscn5)cn4)CCOCC3)cc2)cn1 [Example 143, 4-[4-(2-aminopyrimidin-5-yl)phenyl]-N-[5-(1,3-thiazol-4-yl)pyridin-2-yl]tetrahydro-2H-pyran-4-carboxamide] | 17.1 | 646
Nc1ncc(-c2ccc(C3(C(=O)Nc4ccc(N5CCOCC5)cc4)CCOCC3)cc2)cn1 [Example 147, 4-[4-(2-aminopyrimidin-5-yl)phenyl]-N-[4-(mopholin-4-yl)phenyl]tetrahydro-2H-pyran-4-carboxamide] | 490 | 2900
Nc1ncc(-c2ccc(C3(C(=O)Nc4ccc(CN5CCS(=O)(=O)CC5)cc4)CCOCC3)cc2)cn1 [Example 148, 4-[4-(2-aminopyrimidin-5-yl)phenyl]-N-{4-[(1,1-dioxidothiomorpholin-4-yl)methyl]phenyl}tetrahydro-2H-pyran-4-carboxamide] | 360 | 3980
Nc1ncc(-c2ccc(C3(C(=O)Nc4ccc(N5CCCCC5)cc4)CCOCC3)cc2)cn1 [Example 149, 4-[4-(2-aminopyrimidin-5-yl)phenyl]-N-[4-(piperidin-1-yl)phenyl]tetrahydro-2H-pyran-4-carboxamide] | 260 | 1460
Cc1nc(-c2ccc(NC(=O)C3(c4ccc(-c5cnc6[nH]ccc6c5)cc4)CCOCC3)nc2)cs1 [Example 151, N-[5-(2-methyl-1,3-thiazol-4-yl)pyridin-2-yl]-4-[4-(1H-pyrrolo[2,3-b]pyridin-5-yl)phenyl]tetrahydro-2H-pyran-4-carboxamide] | 2.1 | 200
Cc1nc(-c2ccc(NC(=O)C3(c4ccc(-c5cnc(N)c(C)c5)cc4)CCOCC3)nc2)cs1 [Example 152, 4-[4-(6-amino-5-methylpyridin-3-yl)phenyl]-N-[5-(2-methyl-1,3-thiazol-4-yl)pyridin-2-yl]tetrahydro-2H-pyran-4-carboxamide] | 34.5 | 896
Nc1ncc(-c2ccc(C3(C(=O)Nc4ccc(-n5ccnc5)cc4)CCOCC3)cc2)cn1 [Example 154, 4-[4-(2-aminopyrimidin-5-yl)phenyl]-N-[4-(1H-imidazol-1-yl)phenyl]tetrahydro-2H-pyran-4-carboxamide] | 63.3 | 1370
Nc1ncc(-c2ccc(C3(C(=O)Nc4ccncc4)CCOCC3)cc2)cn1 [Example 155, 4-[4-(2-aminopyrimidin-5-yl)phenyl]-N-(pyridin-4-yl)tetrahydro-2H-pyran-4-carboxamide] | 136 | 857
CC(C)(C(=O)Nc1ccccn1)c1ccc(-c2cnc(N)nc2)cc1 [Example 158, 2-[4-(2-aminopyrimidin-5-yl)phenyl]-2-methyl-N-(pyridin-2-yl)propanamide] | 36 | 5270
COc1cncc(-c2ccc(NC(=O)C(C)(c3ccc(-c4cnc(N)nc4)cc3)C(C)C)nc2)c1 (stereo not drawn) [Example 162, 2-[4-(2-aminopyrimidin-5-yl)phenyl]-N-(5'-methoxy-3,3'-bipyridin-6-yl)-2,3-dimethylbutanamide] | 4.1 | 896
COc1ccc(-c2ccc(NC(=O)C(C)(c3ccc(-c4cnc(N)nc4)cc3)C(C)C)nc2)cn1 (stereo not drawn) [Example 163, 2-[4-(2-aminopyrimidin-5-yl)phenyl]-N-(6'-methoxy-3,3'-bipyridin-6-yl)-2,3-dimethylbutanamide] | 6.75 | 404
COc1ccc(-c2ccc(NC(=O)C(C)(c3ccc(-c4cnc5c(c4)CCN5)cc3)C(C)C)nc2)cn1 (stereo not drawn) [Example 164, 2-[4-(2,3-dihydro-1H-pyrrolo[2,3-b]pyridin-5-yl)phenyl]-N-(6'-methoxy-3,3'-bipyridin-6-yl)-2,3-dimethylbutanamide] | 1.9 | 315
COc1cncc(-c2ccc(NC(=O)C3(c4ccc(-c5cnc6[nH]ccc6c5)cc4)CCOCC3)nc2)c1 [Example 167, N-(5'-methoxy-3,3'-bipyridin-6-yl)-4-[4-(1H-pyrrolo[2,3-b]pyridin-5-yl)phenyl]tetrahydro-2H-pyran-4-carboxamide] | 4.7 | 354
CC(C)C(C)(C(=O)Nc1ccncc1)c1ccc(-c2cnc(N)nc2)cc1 (stereo not drawn) [Example 169, 2-[4-(2-aminopyrimidin-5-yl)phenyl]-2,3-dimethyl-N-(pyridin-4-yl)butanamide] | 5.25 | 330
COc1ccc(-c2ccc(NC(=O)C3(c4ccc(-c5cnc(N)c(CO)c5)cc4)CCOCC3)nc2)cn1 [Example 170] | 9.8 | 894
COc1cncc(-c2ccc(NC(=O)C3(c4ccc(-c5cnc(N)c(CO)c5)cc4)CCOCC3)nc2)c1 [Example 171, 4-{4-[6-amino-5-(hydroxymethyl)pyridin-3-yl]phenyl}-N-(5'-methoxy-3,3'-bipyridin-6-yl)tetrahydro-2H-pyran-4-carboxamide] | 2.05 | 566
